pKi: −log10 of the molar value.
What was measured:
[1] = target: 5-hydroxytryptamine receptor 2A (Homo sapiens, UniProt P28223); assay: Displacement of [3H]-ketanserin from human 5-HT2A receptor by competitive radioligand binding assay
[2] = target: 5-hydroxytryptamine receptor 7 (Rattus norvegicus, UniProt P32305); assay: Displacement of [3H]-CT from rat 5-HT7 receptor expressed in HEK293 cells by competitive radioligand binding assay; type: cell-based
[3] = target: T1, Adrenergic receptor alpha-1 (Rattus norvegicus, UniProt P15823+P23944+P43140); assay: Displacement of […] from alpha1 adrenergic receptor in rat cortex membrane incubated for 60 mins by competitive radioligand binding assay; type: cell membranes
T1 sequence (P15823 whole entry): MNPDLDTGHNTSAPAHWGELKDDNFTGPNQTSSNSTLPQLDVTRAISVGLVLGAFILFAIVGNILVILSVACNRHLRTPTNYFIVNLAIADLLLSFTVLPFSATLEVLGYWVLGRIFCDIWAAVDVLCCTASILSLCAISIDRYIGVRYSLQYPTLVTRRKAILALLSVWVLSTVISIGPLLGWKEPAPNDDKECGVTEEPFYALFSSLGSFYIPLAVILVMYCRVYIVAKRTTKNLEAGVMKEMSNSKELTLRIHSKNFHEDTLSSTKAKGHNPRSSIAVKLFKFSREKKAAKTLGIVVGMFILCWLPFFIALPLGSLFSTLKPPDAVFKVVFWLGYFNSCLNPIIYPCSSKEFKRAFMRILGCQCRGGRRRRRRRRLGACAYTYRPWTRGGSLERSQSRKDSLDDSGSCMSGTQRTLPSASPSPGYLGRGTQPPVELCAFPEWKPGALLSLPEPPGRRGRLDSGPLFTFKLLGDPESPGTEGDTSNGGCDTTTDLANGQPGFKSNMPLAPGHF
T1 sequence (P23944 whole entry): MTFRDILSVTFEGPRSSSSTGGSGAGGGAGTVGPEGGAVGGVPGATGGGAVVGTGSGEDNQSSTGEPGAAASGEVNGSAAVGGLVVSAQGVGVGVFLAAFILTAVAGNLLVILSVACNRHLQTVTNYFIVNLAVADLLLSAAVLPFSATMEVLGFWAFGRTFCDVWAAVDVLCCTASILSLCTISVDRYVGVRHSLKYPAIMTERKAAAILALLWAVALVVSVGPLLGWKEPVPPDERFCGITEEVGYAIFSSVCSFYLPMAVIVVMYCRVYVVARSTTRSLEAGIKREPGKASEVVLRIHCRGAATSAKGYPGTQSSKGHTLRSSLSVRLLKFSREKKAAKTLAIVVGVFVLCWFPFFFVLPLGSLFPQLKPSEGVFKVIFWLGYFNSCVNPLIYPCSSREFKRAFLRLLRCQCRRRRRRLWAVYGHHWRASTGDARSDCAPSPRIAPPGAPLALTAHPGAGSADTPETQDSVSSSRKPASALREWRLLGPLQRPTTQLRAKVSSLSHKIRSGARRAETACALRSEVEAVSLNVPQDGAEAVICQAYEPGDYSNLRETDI
T1 sequence (P43140 whole entry): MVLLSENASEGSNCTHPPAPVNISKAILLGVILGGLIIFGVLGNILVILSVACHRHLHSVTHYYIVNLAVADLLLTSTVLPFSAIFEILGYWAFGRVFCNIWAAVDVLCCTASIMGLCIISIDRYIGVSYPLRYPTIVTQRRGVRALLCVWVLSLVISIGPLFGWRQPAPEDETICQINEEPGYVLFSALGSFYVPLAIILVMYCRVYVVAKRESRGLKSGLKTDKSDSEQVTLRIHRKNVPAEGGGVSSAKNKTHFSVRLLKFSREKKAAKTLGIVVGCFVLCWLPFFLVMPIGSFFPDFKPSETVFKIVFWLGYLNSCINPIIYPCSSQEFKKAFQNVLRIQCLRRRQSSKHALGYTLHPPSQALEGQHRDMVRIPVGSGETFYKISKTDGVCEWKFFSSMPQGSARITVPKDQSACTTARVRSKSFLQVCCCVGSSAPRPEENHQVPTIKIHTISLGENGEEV

[4] = target: T2, 5-hydroxytryptamine receptor 2C (Homo sapiens, UniProt P28335); assay: Displacement of [3H]-ketanserin from human 5-HT2C receptor by competitive radioligand binding assay
T2 sequence (P28335 whole entry): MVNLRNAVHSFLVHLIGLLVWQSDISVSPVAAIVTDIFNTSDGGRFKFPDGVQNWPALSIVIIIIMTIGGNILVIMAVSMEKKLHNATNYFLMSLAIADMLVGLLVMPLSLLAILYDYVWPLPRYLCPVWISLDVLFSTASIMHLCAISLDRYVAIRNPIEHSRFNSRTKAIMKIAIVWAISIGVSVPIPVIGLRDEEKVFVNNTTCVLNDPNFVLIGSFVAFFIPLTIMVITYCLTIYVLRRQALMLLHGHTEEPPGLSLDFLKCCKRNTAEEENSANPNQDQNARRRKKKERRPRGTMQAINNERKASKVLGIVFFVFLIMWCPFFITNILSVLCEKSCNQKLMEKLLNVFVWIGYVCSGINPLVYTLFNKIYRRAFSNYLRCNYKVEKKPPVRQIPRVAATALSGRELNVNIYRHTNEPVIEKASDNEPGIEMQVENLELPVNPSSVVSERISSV

[5] = target: 5-hydroxytryptamine receptor 2B (Homo sapiens, UniProt P41595); assay: Displacement of [3H]-ketanserin from human 5-HT2B receptor by competitive radioligand binding assay
5-hydroxytryptamine receptor 2B, sequence (P41595 whole entry): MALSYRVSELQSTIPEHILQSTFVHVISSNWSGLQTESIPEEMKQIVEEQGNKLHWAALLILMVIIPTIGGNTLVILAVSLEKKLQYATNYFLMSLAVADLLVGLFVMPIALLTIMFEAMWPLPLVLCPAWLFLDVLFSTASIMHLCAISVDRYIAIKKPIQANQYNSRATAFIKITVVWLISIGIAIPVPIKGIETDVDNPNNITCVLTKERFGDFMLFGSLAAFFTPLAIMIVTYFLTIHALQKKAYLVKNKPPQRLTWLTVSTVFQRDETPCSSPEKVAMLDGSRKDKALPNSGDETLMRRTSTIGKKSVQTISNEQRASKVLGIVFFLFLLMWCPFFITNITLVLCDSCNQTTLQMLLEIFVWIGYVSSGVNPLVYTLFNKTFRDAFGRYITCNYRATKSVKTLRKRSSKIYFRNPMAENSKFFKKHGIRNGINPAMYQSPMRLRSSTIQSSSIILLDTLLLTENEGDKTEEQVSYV

5-hydroxytryptamine receptor 7, sequence (P32305 whole entry): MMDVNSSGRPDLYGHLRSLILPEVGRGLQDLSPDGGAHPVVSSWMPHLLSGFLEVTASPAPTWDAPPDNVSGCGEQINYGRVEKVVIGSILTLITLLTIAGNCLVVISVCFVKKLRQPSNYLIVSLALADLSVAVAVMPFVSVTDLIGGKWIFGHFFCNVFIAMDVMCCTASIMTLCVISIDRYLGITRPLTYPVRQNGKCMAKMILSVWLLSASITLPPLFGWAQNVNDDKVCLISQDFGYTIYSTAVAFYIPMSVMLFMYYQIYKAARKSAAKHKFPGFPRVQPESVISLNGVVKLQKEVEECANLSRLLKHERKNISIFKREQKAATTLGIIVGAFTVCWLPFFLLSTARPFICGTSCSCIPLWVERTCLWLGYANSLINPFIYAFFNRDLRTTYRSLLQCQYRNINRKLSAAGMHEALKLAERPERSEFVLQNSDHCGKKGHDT
5-hydroxytryptamine receptor 2A, sequence (P28223 whole entry): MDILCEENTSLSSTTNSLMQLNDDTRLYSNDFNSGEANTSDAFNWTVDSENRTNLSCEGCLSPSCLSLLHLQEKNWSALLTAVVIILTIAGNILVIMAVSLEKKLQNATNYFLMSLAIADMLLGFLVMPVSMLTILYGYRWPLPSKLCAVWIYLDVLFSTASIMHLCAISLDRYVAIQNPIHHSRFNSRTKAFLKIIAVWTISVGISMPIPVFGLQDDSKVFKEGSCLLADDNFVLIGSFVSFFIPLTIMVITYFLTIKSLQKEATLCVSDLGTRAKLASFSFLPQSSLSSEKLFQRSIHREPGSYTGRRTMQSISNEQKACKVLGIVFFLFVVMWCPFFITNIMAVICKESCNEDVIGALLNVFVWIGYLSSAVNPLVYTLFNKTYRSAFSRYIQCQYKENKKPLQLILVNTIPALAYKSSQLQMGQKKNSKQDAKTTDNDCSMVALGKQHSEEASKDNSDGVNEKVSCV

| pKi [1] | pKi [2] | Ki [3] [nM] | pKi [4] | pKi [5] | Structure (SMILES) |
| --- | --- | --- | --- | --- | --- |
| 7.00 |  |  |  |  | Clc1ccc(-c2nn(Cc3ccccc3)c3c2CCNCC3)cc1 [JNJ-18038683 FREE BASE] |
| 8.30 | 7.05 | 240 | 6.41 |  | CC(C)n1nc2c(c1-c1ccc(C#N)cc1)CCNCC2 |
| 7.62 | 7.55 | 530 | 6.89 | 7.72 | CC(C)n1nc2c(c1-c1ccccc1)CCNCC2 |
| 7.82 | 6.40 |  | 6.66 | 7.37 | CC(C)n1nc2c(c1-c1ccc(Cl)cc1Cl)CCNCC2 |
| 7.40 | 5.30 |  | 6.00 | 7.70 | CC(C)n1nc2c(c1-c1ccc(OC(F)(F)F)cc1)CCNCC2 |
| 8.22 |  |  |  |  | Fc1ccc(-c2c3c(nn2C2CC2)CCNCC3)cc1 |
| 8.52 | 7.40 | 16 | 6.68 | 7.62 | CNc1ccc(-c2c3c(nn2C(C)C)CCNCC3)cc1 |
| 8.52 |  | 500 |  | 8.52 | c1ccc(-c2c3c(nn2C2CCC2)CCNCC3)cc1 |
| 8.70 | 7.82 | 130 |  | 8.30 | CC(C)n1nc2c(c1-c1ccc(C(F)(F)F)cc1)CCNCC2 |
| 8.52 | 7.74 |  |  | 9.00 | COc1ccc(-c2c3c(nn2C(C)C)CCNCC3)cc1 |
